# Test results published in patent US12435083B2, “Cyclopropyl-(hetero)aryl-substituted ethylsulphonyl-pyridine derivatives” (BOEHRINGER INGELHEIM VETMEDICA GMBH, priority 2021, dated 2025).
# pEC50: −log10 of the molar value. Read-outs that look alike come from different tables or passages of the source.
# What was measured:
# [1] = test system: adult Rhipicephalus sanguineus ticks; assay: Contact activity against adult Rhipicephalus sanguineus (coated vial, mortality at 48 h); details: for activity against ticks (tick contact assay), in words: in vitro profiling
# Protocol: Example 5: Screening Method to Test Contact Activity of Compounds of Formula (I) Against Adult Rhipicephalus sanguineus
# Compounds of formula (I) formulated in 100% DMSO were diluted in a solution containing acetone and Triton X-100 (0.02%). The resulting formulation was used to coat the inner walls of glass scintillation vials and the filter paper covering the cap of the vial. Once dried, ten adult R. sanguineus ticks were added to the vials. The vials were incubated at 24° C., 95% relative humidity, and 12 hours of light/12 hours of dark until evaluation. Ticks were visually evaluated for mortality at 48 hours post-treatment. Compound efficacy at a given dose is expressed as percentage mortality. A dose response series was implemented to determine EC50 values.
# (§1) The four structurally closest prior art compounds (A), (B), (C) and (D) specifically excluded from the scope of formula (I) were characterized vis-a-vis selected compounds of formula (I) with regard to their potency in in vitro screening assays against fleas (Ctenocehalides felis) and ticks (Rhipicephalus sanguineus).
# (§2) However, as explained above, spectrum of action against this range of species (i.e. fleas and ticks) is a desirable property of ectoparasiticides for veterinary use. In the following table 1 comparative experimental data of the in vitro assays are shown regarding flea membrane feeding (ingestion, blood feeding) activity against Ctenocephalides felis and contact activity against Rhipicephalus sanguineus.
# [2] = test system: adult Ctenocephalides felis fleas; assay: Ingestion activity (flea membrane feeding, blood feeding) against adult Ctenocephalides felis; details: for activity against fleas (flea membrane feeding and flea contact assays), in words: in vitro profiling
# Description: Example 6: Screening Method to Test Ingestion Activity of Compounds of Formula (I) Against Adult Ctenocephalides felis
# as §1
# It is important to note that compounds that show better activity versus ticks are more desirable in the animal health field, as ticks are more difficult to control than fleas. Noteworthy, in particular with regard to fleas the illustrated comparative data are based on a flea membrane feeding (ingestion, blood feeding) assay. Data from this assay are more relevant for compounds intended to be delivered systemically to an animal via oral or injectable routes. Membrane feeding assays differ to primary screening laboratory contact assays in that the latter only measure the effect of the direct contact of selected compounds on the parasite, such as the flea or the tick. The information derived from laboratory contact assays is strictly limited to the ability of the compound to be absorbed through the parasite surface and to reach its molecular target, and no information can be gleaned from these contact assays as to whether the compound would also be active when presented orally to the ectoparasite itself in a blood meal, such as with the membrane feeding assay, and certainly not when administered orally to an animal host (e.g. “in vivo”) with subsequent exposure to the ectoparasite.
# as §2
# [3] = test system: adult Ctenocephalides felis fleas; assay: Contact activity against adult Ctenocephalides felis (treated surface, motility by machine vision, 24 h); details: treated surface, 24h, read-out: EC80 (% motility reduction, adult C. felis, contact)
# Description: Example 7: Screening Method to Test Contact Activity of Compounds of Formula (I) Against Adult Ctenocephalides felis
# Plutella xylostella = assay: Insecticidal test on Plutella xylostella (Chinese cabbage seedling dip); details: 144 h, 500 ppm, seedling dip, 6 days after dip treatment, read-out: activity level (corrected mortality rate), Plutella xylostella
# Protocol: Example 12: Insecticidal Test on Plutella xylostella
# The compounds of formula (I) of the present invention or salts thereof were separately dispersed in water and diluted to 500 ppm. Ten adults of Plutella xylostella were released onto Chinese cabbage seedlings and allowed to lay eggs thereon. 2 days after the release of the adults, the seedling was dipped in the dispersion for about 30 seconds. After air dried, the seedling was kept in a room at 25° C. 6 days after the dip treatment, the numbers of the dead and alive insects were counted. The corrected mortality rate was calculated according to the following formula and the insecticidal activity was evaluated according to the following criteria. Corrected mortality rate (%)=100×(Survival rate in an untreated plot−Survival rate in a treated plot)/Survival rate in an untreated plot • A: the corrected mortality rate is 100% • B: the corrected mortality rate is 90 to 99% • C: the corrected mortality rate is 80 to 89% • D: the corrected mortality rate is 50 to 79%
# [4] = Rhipicephalus sanguineus, contact assay, >100 μM = not active at the top concentration, read-out: R. sanguineus contact activity EC50
# [5] = Ctenocephalides felis, 24 h, flea membrane feeding (ingestion, blood feeding) assay, EC80, read-out: C. felis membrane feeding (ingestion/blood feeding) activity EC80
# [6] = Rhipicephalus sanguineus, 48 hours post-treatment, coated vial, read-out: EC50 (percentage mortality, adult R. sanguineus, contact)
# [7] = Ctenocephalides felis, bovine blood, 24h post treatment, read-out: EC80 (% motility reduction, adult C. felis, ingestion via membrane feeding)
# [8] = contact assay, >100 μM = not active at the top concentration, read-out: R. sanguineus contact activity EC50
# [9] = flea membrane feeding (ingestion, blood feeding) assay, EC80, read-out: C. felis membrane feeding (ingestion/blood feeding) activity EC80
# [10] = flea membrane feeding (ingestion, blood feeding) assay, EC80
compound,measurement,setting,value
"CCS(=O)(=O)c1cc(-c2ccc(C3(C#N)CC3)cc2)cnc1-n1ncc2ccc(C(F)(F)F)cc2c1=O [(A), reference compound]","activity against ticks (tick contact assay), in words",[1]; Rhipicephalus sanguineus,no activity
same,pEC50,[1]; [4],< 4.00
same,EC80,[2]; [5],> 10 µM
same,"activity against fleas (flea membrane feeding and flea contact assays), in words",[2]; Ctenocephalides felis,some activity
"CCS(=O)(=O)c1cc(-c2ccc(C3(C#N)CC3)cc2)cnc1-n1nc2ccc(C(F)(F)F)cn2c1=O [(B), reference compound]","activity against ticks (tick contact assay), in words",[1]; Rhipicephalus sanguineus,no activity
same,pEC50,[1]; [4],< 4.00
same,EC80,[2]; [5],> 10 µM
same,"activity against fleas (flea membrane feeding and flea contact assays), in words",[2]; Ctenocephalides felis,some activity
"CCS(=O)(=O)c1cc(-c2nc(C)cc(C3CC3)n2)cnc1-c1nc2cc(C(F)(F)F)ncc2n1C [(C), reference compound]","activity against ticks (tick contact assay), in words",[1]; Rhipicephalus sanguineus,no activity
same,pEC50,[1]; [4],< 4.00
same,EC80,[2]; [5],> 10 µM
same,"activity against fleas (flea membrane feeding and flea contact assays), in words",[2]; Ctenocephalides felis,some activity
"CCS(=O)(=O)c1cc(-c2ccc(C3CC3)cn2)cnc1-n1ncc(OCC(F)(F)C(F)(F)F)cc1=O [(D), reference compound]","activity against ticks (tick contact assay), in words",[1]; Rhipicephalus sanguineus,no activity
same,pEC50,[1]; [4],< 4.00
same,EC80,[2]; [5],> 10 µM
same,"activity against fleas (flea membrane feeding and flea contact assays), in words",[2]; Ctenocephalides felis,some activity
"CCS(=O)(=O)c1cc(-c2cc(C3CC3)ccn2)cnc1-c1nc2cc3c(cc2n1C)OC(F)(F)O3 [Compound 14, 6-(4-cyclopropyl-5′-(ethylsulfonyl)-[2,3′-bipyridin]-6′-yl)-2,2-difluoro-5-methyl-5H-[1,3]dioxolo[4′,5′:4,5]benzo[1,2-d]imidazole]",EC80,[3],1 to 10 µM
"CCS(=O)(=O)c1cc(-c2ccc(C3CC3)cc2)cnc1-n1cc2ccc(C(F)(F)F)cc2n1 [Compound 46, 2-[5-(4-cyclopropylphenyl)-3-(ethanesulfonyl)pyridin-2-yl]-6-(trifluoromethyl)indazole]",pEC50,[1]; [6],4.00 to 5.00
same,pEC50,[1]; [4],4.00 to 5.00
same,EC80,[2]; [5],1 to 10 µM
same,EC80,[2]; [7],1 to 10 µM
"CCS(=O)(=O)c1cc(-c2ccc(C3CC3)cc2)cnc1-n1cc2ncc(C(F)(F)F)cc2n1 [Compound 48, 5-(4-cyclopropylphenyl)-3-(ethanesulfonyl)-2-[6-(trifluoromethyl)pyrazolo[4,3-b]pyridin-2-yl]pyrid-ine]",EC80,[3],1 to 10 µM
CCS(=O)(=O)c1cc(-c2ccc(C3CC3)cc2)cnc1-c1cc2n(C(F)F)cc(C(F)(F)F)cc-2n1 [Compound 97],pEC50,[1]; [4],4.00 to 5.00
same,EC80,[2]; [5],< 1 µM
same,mortality at 500 ppm,Plutella xylostella,100%
"CCS(=O)(=O)c1cc(-c2ccc(C3CC3)cc2)cnc1-c1ncc(OCC(F)(F)C(F)(F)F)c(=O)n1C [Compound 110, 2-[5-(4-cyclopropylphenyl)-3-(ethanesulfonyl)pyridin-2-yl]-3-methyl-5-(2,2,3,3,3-pentafluoropropoxy)pyrimidin-4-one]",EC80,[3],1 to 10 µM
"CCS(=O)(=O)c1cc(-c2ccc(C3(F)CC3)nc2)cnc1-c1nc2cc(C(F)(F)F)n(C3CC3)c(=O)c2n1C [Compound 176, 5-cyclopropyl-2-[5-(ethanesulfonyl)-6′-(1-fluorocyclopropyl)-[3,3′-bipyridin]-6-yl]-3-methyl-6-(trifluoromethyl)imidazo[4,5-c]pyridin-4-one]",pEC50,[1]; [6],4.00 to 5.00
same,EC80,[2]; [7],1 to 10 µM
"CCS(=O)(=O)c1cc(-c2ccc(C3CC3)cc2)cnc1-n1ncc2ncc(C(F)(F)C(F)(F)F)cc21 [Compound 191, 5-(4-cyclopropylphenyl)-3-(ethanesulfonyl)-2-[6-(1,1,2,2,2-pentafluoroethyl)-1H-pyrazolo[4,3-b]pyridin-1-yl]pyridine]",mortality at 500 ppm,Plutella xylostella,100%
"C=CCn1cc(C(F)(F)F)cc2nc(-c3ncc(-c4ccc(C5(C#N)CC5)cc4)cc3S(=O)(=O)CC)c(F)c1-2 [Compound 198, 1-{4-[5-(ethanesulfonyl)-6-[3-fluoro-4-(prop-2-en-1-yl)-6-(trifluoromethyl)pyrrolo[3,2-b]pyridin-2-yl]pyridin-3-yl]phenyl}cyclopropane-1-carbonitrile]",EC80,[2]; [7],1 to 10 µM
CCS(=O)(=O)c1cc(-c2ccc(C3CC3)cc2)cnc1-c1nc2cc(C(F)(F)F)cn(CC(F)F)c-2c1F [compound 12],pEC50,[1]; [8],4.00 to 5.00
same,EC80,[2]; [9],<1 µM
CCS(=O)(=O)c1cc(-c2ccc(C3(C#N)CC3)cc2)cnc1-c1nc2cc(C(F)(F)C(F)(F)F)cnc2n1C [compound 80],pEC50,[1]; [8],4.00 to 5.00
same,EC80,[2]; [9],<1 µM
CCS(=O)(=O)c1cc(-c2ccc(C3(C#N)CC3)cc2)cnc1-c1nc2cc(C(F)(F)F)n(C3CC3)c(=O)c2n1C [compound 88],pEC50,[1]; [8],4.00 to 5.00
same,C. felis membrane feeding (ingestion/blood feeding) activity EC80,[2]; [10],1 to 10 µM
CCS(=O)(=O)c1cc(-c2ccc(C3CC3)nc2)cnc1-c1nc2cc(C(F)(F)F)n(C3CC3)c(=O)c2n1C [compound 89],pEC50,[1]; [8],4.00 to 5.00
same,C. felis membrane feeding (ingestion/blood feeding) activity EC80,[2]; [10],1 to 10 µM
CCn1cc(C(F)(F)F)cc2nc(-c3ncc(-c4cccc(C5CC5)n4)cc3S(=O)(=O)CC)cc1-2 [compound 113],mortality at 500 ppm,Plutella xylostella,100%
CCS(=O)(=O)c1cc(-c2ccc(C3(F)CC3)cc2)cnc1-c1nc2cc(C(F)(F)F)n(C3CC3)c(=O)c2n1C [compound 124],pEC50,[1]; [8],4.00 to 5.00
same,C. felis membrane feeding (ingestion/blood feeding) activity EC80,[2]; [10],1 to 10 µM
CCS(=O)(=O)c1cc(-c2ccc(C3(C#N)CC3)nc2)cnc1-c1nc2cc(C(F)(F)F)n(C3CC3)c(=O)c2n1C [compound 133],pEC50,[1]; [8],4.00 to 5.00
same,C. felis membrane feeding (ingestion/blood feeding) activity EC80,[2]; [10],1 to 10 µM
CCS(=O)(=O)c1cc(-c2ccc(C3CC3(F)F)cc2)cnc1-c1nc2cc(C(F)(F)C(F)(F)F)nnc2n1C (stereo not shown) [compound 135],pEC50,[1]; [8],4.00 to 5.00
same,C. felis membrane feeding (ingestion/blood feeding) activity EC80,[2]; [10],1 to 10 µM
CCS(=O)(=O)c1cc(-c2cc(C3CC3)nc(C)n2)cnc1-c1nc2cc(C(F)(F)C(F)(F)F)nnc2n1C [compound 142],pEC50,[1]; [8],4.00 to 5.00
same,C. felis membrane feeding (ingestion/blood feeding) activity EC80,[2]; [10],1 to 10 µM
CCS(=O)(=O)c1cc(-c2ccc(C3CC3)nn2)cnc1-c1nc2cc(C(F)(F)C(F)(F)F)cnc2n1C [compound 153],pEC50,[1]; [8],4.00 to 5.00
same,C. felis membrane feeding (ingestion/blood feeding) activity EC80,[2]; [10],1 to 10 µM
CCS(=O)(=O)c1cc(-c2nccc(C3CC3)n2)cnc1-c1nc2cc(C(F)(F)C(F)(F)F)cnc2n1C [compound 165],pEC50,[1]; [8],4.00 to 5.00
same,EC80,[2]; [9],<1 µM
CCS(=O)(=O)c1cc(-c2cc(C3CC3)nc(C)n2)cnc1-c1nc2cc(C(F)(F)C(F)(F)F)cnc2n1C [compound 166],pEC50,[1]; [8],4.00 to 5.00
same,EC80,[2]; [9],<1 µM
CCS(=O)(=O)c1cc(-c2cccnc2C2CC2)cnc1-c1nc2cc(C(F)(F)C(F)(F)F)cnc2n1C [compound 169],pEC50,[1]; [8],4.00 to 5.00
same,C. felis membrane feeding (ingestion/blood feeding) activity EC80,[2]; [10],1 to 10 µM
CCS(=O)(=O)c1cc(-c2ccc(C3CC3)nc2)cnc1-c1nc2cc(SC(F)(F)F)nnc2n1C [compound 186],pEC50,[1]; [8],> 5.00
same,EC80,[2]; [9],<1 µM
"CCn1c(=O)c(C(F)(F)F)cc2nc(-c3ncc(-c4ccc(C5CC5)cc4)cc3S(=O)(=O)CC)n(C)c21 [compound 214, 2-[5-(4-cyclopropylphenyl)-3-(ethanesulfonyl)pyridin-2-yl]-4-ethyl-3-methyl-6-(trifluoromethyl)-3H,4H,5H-imidazo[4,5-b]pyridin-5-one]",EC80,[2]; [7],< 1 µM
